Reference: PMC11882969 (Nature Communications, 2025)
Where “and” joins values, the source holds several entries; their conditions need not be identical. Equal entries are not always repeated. Marks after values point to notes of the source that are not given here.

Tests used:
[1] = Dynamic light scattering, colloidal aggregation; format: physicochemical; conditions: Log[compound, replicates, sheet FigS2b
Experimental: Samples were prepared as 8-point half-log dilutions in filtered 50 mM KPi buffer, pH 7.0 with final DMSO concentration at 1% (v/v). Colloidal particle formation was measured using DynaPro Plate Reader II (Wyatt Technologies). All compounds were screened in triplicate.

CB1 (rCB1) [2] = target: T1, CB1 (rCB1) (Rattus norvegicus, UniProt P20272); assay: Radioligand competition binding, [3H]-CP-55,940, rat brain membranes
CB1 (rCB1) [3] = target: T1, CB1 (rCB1); assay: Single-point radioligand displacement screen; format: binding
hCB1 [4] = target: T2, hCB1 (Homo sapiens, UniProt P21554); assay: bioSensAll ebBRET signaling profiling, hCB1; format: cell-based; parameters: host or cells: HEK293SL cells, transient PEI transfection; conditions: for Barr2+GRK2 hCB1 response: Barr2+GRK2 biosensor; for Gi1 hCB1 / GoB hCB1: single replicate values, FigS6a
hCB1 [5] = target: T2, hCB1; assay: Lance Ultra cAMP accumulation assay, CHO cells; format: cell-based; parameters: expressed in transfected cells; conditions: replicates, sheet FigureS2a;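 also: human CB1R stably expressed in CHO cells, ligands co-incubated with forskolin at room temperature, read-out is lowering of forskolin-stimulated cAMP accumulation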

T1 sequence (P20272 whole entry): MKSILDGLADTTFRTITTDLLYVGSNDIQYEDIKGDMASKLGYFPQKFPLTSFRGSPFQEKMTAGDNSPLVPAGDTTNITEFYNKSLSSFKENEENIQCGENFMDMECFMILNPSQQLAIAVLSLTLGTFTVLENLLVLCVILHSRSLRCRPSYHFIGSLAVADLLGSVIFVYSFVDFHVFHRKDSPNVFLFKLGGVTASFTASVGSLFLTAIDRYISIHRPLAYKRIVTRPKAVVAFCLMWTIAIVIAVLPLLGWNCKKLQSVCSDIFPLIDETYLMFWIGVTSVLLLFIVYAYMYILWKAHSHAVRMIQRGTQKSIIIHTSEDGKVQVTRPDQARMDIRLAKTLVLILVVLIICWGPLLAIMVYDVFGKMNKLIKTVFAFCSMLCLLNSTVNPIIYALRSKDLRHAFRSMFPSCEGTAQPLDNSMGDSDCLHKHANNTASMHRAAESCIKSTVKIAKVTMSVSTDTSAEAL
T2 sequence (P21554 whole entry): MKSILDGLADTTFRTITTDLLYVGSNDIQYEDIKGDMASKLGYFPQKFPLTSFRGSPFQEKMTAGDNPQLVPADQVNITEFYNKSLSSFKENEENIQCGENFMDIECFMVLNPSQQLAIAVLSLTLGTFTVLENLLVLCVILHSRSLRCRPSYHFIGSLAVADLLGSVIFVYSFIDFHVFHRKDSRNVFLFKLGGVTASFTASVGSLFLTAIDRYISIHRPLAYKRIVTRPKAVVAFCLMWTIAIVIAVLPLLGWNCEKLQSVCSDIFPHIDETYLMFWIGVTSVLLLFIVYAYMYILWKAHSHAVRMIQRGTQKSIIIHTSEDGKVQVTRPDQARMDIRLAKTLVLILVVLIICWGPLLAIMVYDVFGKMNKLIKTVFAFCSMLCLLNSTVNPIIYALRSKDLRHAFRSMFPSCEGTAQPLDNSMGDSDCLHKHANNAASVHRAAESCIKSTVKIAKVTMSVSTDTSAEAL

With Cc1nc(CC2CC2)oc1-c1nc(Cc2cc3c(cc2Br)OCO3)no1 [‘7019] the DLS scattering intensity ([1]; uM] 0) was 2130000 and 1970000 and 1380000, the DLS scattering intensity ([1]; uM] 1) was 1540000 and 2950000 and 1930000 and the DLS scattering intensity ([1]; uM] 1.49996) was 46500000 and 37100000 and 47300000. For the same molecule, the DLS scattering intensity ([1]; uM] 2) was 1480000* and 177000000 and 144000000, the DLS scattering intensity ([1]; uM] -0.500011) was 1270000 and 1420000 and 400669 and the DLS scattering intensity ([1]; uM] -1) was 2530000 and 1820000 and 2230000. For the same molecule, the “radioligand binding remaining, competition curve (Figure2e), replicate values” (shortened to “radioligand binding remaining”) (CB1 (rCB1) [2]; log[drug] -3.643) was 14.0395 and 10.3537 and 12.7126, the “radioligand binding remaining” value (CB1 (rCB1) [2]; log[drug] -4.35655) was 11.9492 and 13.8721 and 12.5783 and the “radioligand binding remaining” value (CB1 (rCB1) [2]; log[drug] -5.07) was 46.5819 and 49.8809 and 53.387. For the same molecule, the “radioligand binding remaining” value (CB1 (rCB1) [2]; log[drug] -5.783) was 89.8305 and 82.4446 and 90.6893, the “radioligand binding remaining” value (CB1 (rCB1) [2]; log[drug] -6.496) was 105.085 and 92.9907 and 91.4056 and the “radioligand binding remaining” value (CB1 (rCB1) [2]; log[drug] -7.21) was 98.1356 and 103.28 and 99.3733. The “radioligand binding remaining” value (CB1 (rCB1) [2]; log[drug] -7.923) was 89.0395 and 99.5785 and 100.597, the “radioligand binding remaining” value (CB1 (rCB1) [2]; log[drug] -8.636) was 97.4011 and 107.312 and 98.9257 and the “pKi [95% CI]” value (CB1 (rCB1) [2]; rCB1) was 5.39 [5.27 –5.52]. For the same molecule, the “% 1H-CP-55,940 displacement (mean) from single point screen” value (CB1 (rCB1) [3]; 10 µM, 1 µM or 300 nM by cell colour (not visible)) was 69.08%, the rep1_displacement (CB1 (rCB1) [3]; Figure 1c source data, replicate 1) was 67.1 and the rep2_displacement (CB1 (rCB1) [3]; Figure 1c source data, replicate 2) was 70.3. The rep3_displacement (CB1 (rCB1) [3]; Figure 1c source data, replicate 3) was 69.9, the “Barr2+GRK2 hCB1 response” value (hCB1 [4]; Log [Compound] (M) -4.22186) was 62.2028 and the “Barr2+GRK2 hCB1 response” value (hCB1 [4]; Log [Compound] (M) -4.63927) was 5.727. For the same molecule, the “Barr2+GRK2 hCB1 response” value (hCB1 [4]; Log [Compound] (M) -5.05788) was -5.441, the “Barr2+GRK2 hCB1 response” value (hCB1 [4]; Log [Compound] (M) -5.47381) was -3.845 and the “Barr2+GRK2 hCB1 response” value (hCB1 [4]; Log [Compound] (M) -5.89285) was 30.2955. The “Barr2+GRK2 hCB1 response” value (hCB1 [4]; Log [Compound] (M) -6.31878) was 10.513, the “Barr2+GRK2 hCB1 response” value (hCB1 [4]; Log [Compound] (M) -6.72585) was 12.1083 and the “Barr2+GRK2 hCB1 response” value (hCB1 [4]; Log [Compound] (M) -7.14267) was 9.875. For the same molecule, the “Barr2+GRK2 hCB1 response” value (hCB1 [4]; Log [Compound] (M) -7.55284) was -7.674, the “Barr2+GRK2 hCB1 response” value (hCB1 [4]; Log [Compound] (M) -8) was 3.174 and the “Barr2+GRK2 hCB1 response” value (hCB1 [4]; Log [Compound] (M) -8.22186) was 10.513. The “Barr2+GRK2 hCB1 response” value (hCB1 [4]; Log [Compound] (M) -8.39794) was 2.217, the “Barr2+GRK2 hCB1 response” value (hCB1 [4]; Log [Compound] (M) -8.68787) was -30.0093 and the “Barr2+GRK2 hCB1 response” value (hCB1 [4]; Log [Compound] (M) -9.15521) was -44.3676. The “Barr2+GRK2 hCB1 response” value (hCB1 [4]; Log [Compound] (M) -9.61989) was -29.3712, the “Barr2+GRK2 hCB1 response” value (hCB1 [4]; Log [Compound] (M) -10.0969) was -17.8845 and the “Barr2+GRK2 hCB1 response” value (hCB1 [4]; Log [Compound] (M) -10.5529) was -36.0717. The “Barr2+GRK2 hCB1 response” value (hCB1 [4]; Log [Compound] (M) -11.0177) was -47.2392, the “Barr2+GRK2 hCB1 response” value (hCB1 [4]; Log [Compound] (M) -11.4949) was -38.6243 and the “Barr2+GRK2 hCB1 response” value (hCB1 [4]; Log [Compound] (M) -11.9208) was -22.6706. For the same molecule, the “Barr2+GRK2 hCB1 response” value (hCB1 [4]; Log [Compound] (M) -12.3979) was -32.5619, the “Barr2+GRK2 hCB1 response” value (hCB1 [4]; Log [Compound] (M) -12.8861) was -24.5851 and the “Barr2+GRK2 hCB1 response” value (hCB1 [4]; Log [Compound] (M) -13.3979) was -2.25. The “Gi1 hCB1” value (hCB1 [4]; Log [Compound] (M) -4.22186) was -7.329, the “GoB hCB1” value (hCB1 [4]; Log [Compound] (M) -4.22186) was -13.0099 and the “Gi1 hCB1” value (hCB1 [4]; Log [Compound] (M) -4.63927) was -8.042. For the same molecule, the “GoB hCB1” value (hCB1 [4]; Log [Compound] (M) -4.63927) was -13.6002, the “Gi1 hCB1” value (hCB1 [4]; Log [Compound] (M) -5.05788) was -10.1639 and the “GoB hCB1” value (hCB1 [4]; Log [Compound] (M) -5.05788) was -11.5515. The “Gi1 hCB1” value (hCB1 [4]; Log [Compound] (M) -5.47381) was -10.5282, the “GoB hCB1” value (hCB1 [4]; Log [Compound] (M) -5.47381) was -15.1627 and the “Gi1 hCB1” value (hCB1 [4]; Log [Compound] (M) -5.89285) was -9.467. The “GoB hCB1” value (hCB1 [4]; Log [Compound] (M) -5.89285) was -15.9787, the “Gi1 hCB1” value (hCB1 [4]; Log [Compound] (M) -6.31878) was -6.569 and the “GoB hCB1” value (hCB1 [4]; Log [Compound] (M) -6.31878) was -12.489. For the same molecule, the “Gi1 hCB1” value (hCB1 [4]; Log [Compound] (M) -6.72585) was -4.716, the “GoB hCB1” value (hCB1 [4]; Log [Compound] (M) -6.72585) was -9.694 and the “Gi1 hCB1” value (hCB1 [4]; Log [Compound] (M) -7.14267) was 3.012. The “GoB hCB1” value (hCB1 [4]; Log [Compound] (M) -7.14267) was -8.531, the “Gi1 hCB1” value (hCB1 [4]; Log [Compound] (M) -7.55284) was 0.08255 and the “GoB hCB1” value (hCB1 [4]; Log [Compound] (M) -7.55284) was -6.326. The “Gi1 hCB1” value (hCB1 [4]; Log [Compound] (M) -8) was 2.236, the “GoB hCB1” value (hCB1 [4]; Log [Compound] (M) -8) was -8.913 and the “Gi1 hCB1” value (hCB1 [4]; Log [Compound] (M) -8.22186) was 3.4083. For the same molecule, the “GoB hCB1” value (hCB1 [4]; Log [Compound] (M) -8.22186) was -2.3673, the “Gi1 hCB1” value (hCB1 [4]; Log [Compound] (M) -8.39794) was 2.078 and the “GoB hCB1” value (hCB1 [4]; Log [Compound] (M) -8.39794) was -8.01. For the same molecule, the “Gi1 hCB1” value (hCB1 [4]; Log [Compound] (M) -8.68787) was 0.1776, the “GoB hCB1” value (hCB1 [4]; Log [Compound] (M) -8.68787) was -4.607 and the “Gi1 hCB1” value (hCB1 [4]; Log [Compound] (M) -9.15521) was -0.1708. The “GoB hCB1” value (hCB1 [4]; Log [Compound] (M) -9.15521) was -5.336, the “Gi1 hCB1” value (hCB1 [4]; Log [Compound] (M) -9.61989) was 0.4151 and the “GoB hCB1” value (hCB1 [4]; Log [Compound] (M) -9.61989) was -6.256. The “Gi1 hCB1” value (hCB1 [4]; Log [Compound] (M) -10.0969) was -0.8202, the “GoB hCB1” value (hCB1 [4]; Log [Compound] (M) -10.0969) was -5.6139 and the “Gi1 hCB1” value (hCB1 [4]; Log [Compound] (M) -10.5529) was 1.635. For the same molecule, the “GoB hCB1” value (hCB1 [4]; Log [Compound] (M) -10.5529) was -5.77, the “Gi1 hCB1” value (hCB1 [4]; Log [Compound] (M) -11.0177) was 0.2092 and the “GoB hCB1” value (hCB1 [4]; Log [Compound] (M) -11.0177) was -3.426. For the same molecule, the “Gi1 hCB1” value (hCB1 [4]; Log [Compound] (M) -11.4949) was -0.7251, the “GoB hCB1” value (hCB1 [4]; Log [Compound] (M) -11.4949) was -5.058 and the “Gi1 hCB1” value (hCB1 [4]; Log [Compound] (M) -11.9208) was -0.5034. For the same molecule, the “GoB hCB1” value (hCB1 [4]; Log [Compound] (M) -11.9208) was -3.392, the “Gi1 hCB1” value (hCB1 [4]; Log [Compound] (M) -12.3979) was 1.698 and the “GoB hCB1” value (hCB1 [4]; Log [Compound] (M) -12.3979) was -7.2806. For the same molecule, the “Gi1 hCB1” value (hCB1 [4]; Log [Compound] (M) -12.8861) was 0.8586, the “GoB hCB1” value (hCB1 [4]; Log [Compound] (M) -12.8861) was -4.763 and the “Gi1 hCB1” value (hCB1 [4]; Log [Compound] (M) -13) was 6.94. The “GoB hCB1” value (hCB1 [4]; Log [Compound] (M) -13) was -5.215, the “Gi1 hCB1” value (hCB1 [4]; Log [Compound] (M) cell empty) was 3.028 and the “GoB hCB1” value (hCB1 [4]; Log [Compound] (M) cell empty) was -6.482. For the same molecule, the “cAMP assay signal, concentration-response point” value (“cAMP assay signal” below) (hCB1 [5]; compound 0.01 nM) was 0.00339 and 0.00303 and 0.003953, the “cAMP assay signal” value (hCB1 [5]; compound 0.1 nM) was 0.003311 (2×) and 0.004082 and the “cAMP assay signal” value (hCB1 [5]; compound 1 nM) was 0.003289 and 0.004926 and 0.003401. For the same molecule, the “cAMP assay signal” value (hCB1 [5]; compound 10 nM) was 0.003247 and 0.002457 and 0.002907, the “cAMP assay signal” value (hCB1 [5]; compound 100 nM) was 0.002793 and 0.0025 and 0.003861 and the “cAMP assay signal” value (hCB1 [5]; compound 1000 nM) was 0.003175 and 0.003571 and 0.003759. For the same molecule, the “cAMP assay signal” value (hCB1 [5]; compound 10000 nM) was 0.00431 and 0.005952* and 0.003571 and the “cAMP assay signal” value (hCB1 [5]; compound 100000 nM) was 0.0007716 and 0.001742 and 0.0006817.
